According to patent US20050197350A1, “Novel quinoline, tetrahydroquinazoline, and pyrimidine derivatives and methods of treatment related to the use thereof” (TAISHO PHARMACEUTICAL CO., LTD., priority 2003, published 2005):

These compounds were tested on MCH receptors (assay: MCH receptor activity class (method not given)). Details: MCH receptor; class by percent of control at 10^-7 M or IC50.

Compound | class
CN(C)c1cc(N[C@H]2CC[C@@H](NC(=O)c3cc(F)cc(C(F)(F)F)c3)CC2)nc2ccccc12 [compound 38, N-(cis-4-{[4-(dimethylamino)quinolin-2-yl]amino}cyclohexyl)-3-fluoro-5-(trifluoromethyl)benzamide] | 2 (Class 2: The value of percent of control at 10^−7 M was from 40% to 60% or the value of IC′50 was from 50 nM to 200 nM.)
CN(C)c1cc(N[C@H]2CC[C@@H](NC(=O)c3cc(F)c(Cl)cc3Cl)CC2)nc2ccccc12 [compound 39] | 3 (Class 3 The value of percent of control at 10^−7 M was more than 60% or the value of IC50 was more than 200 nM.)
CCCCCC(=O)N[C@H]1CC[C@@H](Nc2cc(N(C)C)c3ccccc3n2)CC1 [compound 40] | 3 (Class 3 The value of percent of control at 10^−7 M was more than 60% or the value of IC50 was more than 200 nM.)
CN(C)c1cc(N[C@H]2CC[C@@H](NC(=O)c3ccc(I)cc3)CC2)nc2ccccc12 [compound 41] | 3 (Class 3 The value of percent of control at 10^−7 M was more than 60% or the value of IC50 was more than 200 nM.)
CSc1ncccc1C(=O)N[C@H]1CC[C@@H](Nc2cc(N(C)C)c3ccccc3n2)CC1 [compound 42] | 3 (Class 3 The value of percent of control at 10^−7 M was more than 60% or the value of IC50 was more than 200 nM.)
Cc1ccc(C(=O)N[C@H]2CC[C@@H](Nc3cc(N(C)C)c4ccccc4n3)CC2)cc1[N+](=O)[O-] [compound 43, N-(cis-4-{[4-(dimethylamino)quinolin-2-yl]amino}cyclohexyl)-4-methyl-3-nitrobenzamide] | 2 (Class 2: The value of percent of control at 10^−7 M was from 40% to 60% or the value of IC′50 was from 50 nM to 200 nM.)
CN(C)c1cc(N[C@H]2CC[C@@H](NC(=O)c3cccc([N+](=O)[O-])c3)CC2)nc2ccccc12 [compound 44, N-(cis-4-{[4-(dimethylamino)quinolin-2-yl]amino}cyclohexyl)-3-nitrobenzamide] | 1 (Class 1: The value of percent of control at 10^−7 M was less than 40% or the value of IC50 was less than 50 nM.)
CN(C)c1cc(N[C@H]2CC[C@@H](NC(=O)Cc3ccccc3)CC2)nc2ccccc12 [compound 45, N-(cis-4-{[4-(dimethylamino)quinolin-2-yl]amino}cyclohexyl)-2-phenlacetamide] | 3 (Class 3 The value of percent of control at 10^−7 M was more than 60% or the value of IC50 was more than 200 nM.)
CN(C)c1cc(N[C@H]2CC[C@@H](NC(=O)C3C[C@H]3c3ccccc3)CC2)nc2ccccc12 (some centres unmarked) [compound 46] | 3 (Class 3 The value of percent of control at 10^−7 M was more than 60% or the value of IC50 was more than 200 nM.)
CN(C)c1cc(N[C@H]2CC[C@@H](NC(=O)c3ccc4c(c3)OCO4)CC2)nc2ccccc12 [compound 47] | 3 (Class 3 The value of percent of control at 10^−7 M was more than 60% or the value of IC50 was more than 200 nM.)
Cc1cccc(C(=O)N[C@H]2CC[C@@H](Nc3cc(N(C)C)c4ccccc4n3)CC2)c1 [compound 50, N-(cis-4-{[4-(dimethylamino)quinolin-2-yl]amino}cyclohexyl)-3-methylbenzamide] | 1 (Class 1: The value of percent of control at 10^−7 M was less than 40% or the value of IC50 was less than 50 nM.)
Cc1ccc(C(=O)N[C@H]2CC[C@@H](Nc3cc(N(C)C)c4ccccc4n3)CC2)cc1 [compound 51] | 3 (Class 3 The value of percent of control at 10^−7 M was more than 60% or the value of IC50 was more than 200 nM.)
CN(C)c1cc(N[C@H]2CC[C@@H](NC(=O)c3cccs3)CC2)nc2ccccc12 [compound 52] | 3 (Class 3 The value of percent of control at 10^−7 M was more than 60% or the value of IC50 was more than 200 nM.)
CN(C)c1cc(N[C@H]2CC[C@@H](NC(=O)Cc3cccs3)CC2)nc2ccccc12 [compound 53] | 3 (Class 3 The value of percent of control at 10^−7 M was more than 60% or the value of IC50 was more than 200 nM.)
CN(C)c1cc(N[C@H]2CC[C@@H](NC(=O)c3cccc(OC(F)(F)F)c3)CC2)nc2ccccc12 [compound 54, N-(cis-4-{[4-(dimethylamino)quinolin-2-yl]amino}cyclohexyl)-3-(trifluoromethoxy)benzamide] | 2 (Class 2: The value of percent of control at 10^−7 M was from 40% to 60% or the value of IC′50 was from 50 nM to 200 nM.)
CN(C)c1cc(N[C@H]2CC[C@@H](NC(=O)OCc3ccccc3)CC2)nc2ccccc12 [compound 55] | 3 (Class 3 The value of percent of control at 10^−7 M was more than 60% or the value of IC50 was more than 200 nM.)
CN(C)c1cc(N[C@H]2CC[C@@H](NC(=O)OCc3ccc([N+](=O)[O-])cc3)CC2)nc2ccccc12 [compound 56] | 3 (Class 3 The value of percent of control at 10^−7 M was more than 60% or the value of IC50 was more than 200 nM.)
Cc1cc(C(=O)N[C@H]2CC[C@@H](Nc3cc(N(C)C)c4ccccc4n3)CC2)ccc1Br [compound 57, 4-bromo-N-(cis-4-{[4-(dimethylamino)quinolin-2-yl]amino}cyclohexyl)-3-methylbenzamide] | 1 (Class 1: The value of percent of control at 10^−7 M was less than 40% or the value of IC50 was less than 50 nM.)
CN(C)c1cc(N[C@H]2CC[C@@H](NC(=O)c3cccc(I)c3)CC2)nc2ccccc12 [compound 58, N-(cis-4-{[4-(dimethylamino)quinolin-2-yl]amino}cyclohexyl)-3-iodobenzamide] | 2 (Class 2: The value of percent of control at 10^−7 M was from 40% to 60% or the value of IC′50 was from 50 nM to 200 nM.)
CN(C)c1cc(N[C@H]2CC[C@@H](NC(=O)c3cccc(Cl)c3F)CC2)nc2ccccc12 [compound 59] | 3 (Class 3 The value of percent of control at 10^−7 M was more than 60% or the value of IC50 was more than 200 nM.)
Cc1ccc(C(=O)N[C@H]2CC[C@@H](Nc3cc(N(C)C)c4ccccc4n3)CC2)c(F)c1F [compound 60] | 3 (Class 3 The value of percent of control at 10^−7 M was more than 60% or the value of IC50 was more than 200 nM.)
CN(C)c1cc(N[C@H]2CC[C@@H](NC(=O)c3ccc(F)cc3Cl)CC2)nc2ccccc12 [compound 61] | 3 (Class 3 The value of percent of control at 10^−7 M was more than 60% or the value of IC50 was more than 200 nM.)
CN(C)c1cc(N[C@H]2CC[C@@H](NC(=O)c3ccc(F)c(Cl)c3F)CC2)nc2ccccc12 [compound 62, 3-chloro-N-(cis-4-{[4-(dimethylamino)quinolin-2-yl]amino}cyclohexyl)-2,4-difluorobenzamide] | 2 (Class 2: The value of percent of control at 10^−7 M was from 40% to 60% or the value of IC′50 was from 50 nM to 200 nM.)
CN(C)c1cc(N[C@H]2CC[C@@H](NC(=O)CSc3ccccc3)CC2)nc2ccccc12 [compound 63] | 3 (Class 3 The value of percent of control at 10^−7 M was more than 60% or the value of IC50 was more than 200 nM.)
CN(C)c1cc(N[C@H]2CC[C@@H](NC(=O)c3cccc(C(F)(F)F)c3F)CC2)nc2ccccc12 [compound 64] | 3 (Class 3 The value of percent of control at 10^−7 M was more than 60% or the value of IC50 was more than 200 nM.)
CN(C)c1cc(N[C@H]2CC[C@@H](NC(=O)c3cc(C(F)(F)F)ccc3F)CC2)nc2ccccc12 [compound 65] | 3 (Class 3 The value of percent of control at 10^−7 M was more than 60% or the value of IC50 was more than 200 nM.)
